Assay results: ChEMBL document CHEMBL3885861, “Open TG-GATES”

Species on record: Rattus norvegicus
Experiment: Open TG-GATES - Regimen: Daily Repeat
Type: toxicity, organism-based, Sprague-Dawley
Parameters: regimen Daily Repeat, gender Male, age 6 weeks
Details: in vivo, po, route gavage; for APTT / Bas / Eos / Fbg / Ht / Lym / MCH / MCHC / MCV / Mono / Neu / Plat / RBC / Ret / WBC: tissue Blood; for ALP / ALT / AST / BUN / CRE / DBIL / GLC / IP / K / LDH / Na / PL / RALB / TBIL / TC / TG / TP / gamma-GTP: tissue Plasma
[1] = 0 mg/kg, 72 h, dose level Control, time 3 day
[2] = 0 mg/kg, […], dose level Control, time 7 day
[3] = 0 mg/kg, […], dose level Control, time 14 day
[4] = 0 mg/kg, […], dose level Control, time 28 day
[5] = 45 mg/kg, 72 h, dose level Low, time 3 day
[6] = 45 mg/kg, […], dose level Low, time 7 day
[7] = 45 mg/kg, […], dose level Low, time 14 day
[8] = 45 mg/kg, […], dose level Low, time 28 day

## CCCC(CCC)C(=O)O [VALPROIC ACID]
[1]
  TERMINAL_BW: 222 g
  APTT: 18.8 s
  Bas: 0%
  Eos: 1%
  Fbg: 222.8 mg/dL
  Ht: 37.7%
  Lym: 82.2%
  MCH: 21.3 pg
  MCHC: 34.2%
  MCV: 62.3 fL
  Mono: 3.4%
  Neu: 12.8%
  Plat: 135 x10_4/uL
  RBC: 604.8 x10_4/ul
  Ret: 6.6%
  WBC: 101 x10_2/uL
  ALP: 1099.6 IU/L
  ALT: 35.6 IU/L
  AST: 65.4 IU/L
  BUN: 16.2 mg/dL
  CRE: 0.4 mg/dL
  DBIL: 0.062 mg/dL
  GLC: 216.2 mg/dL
  IP: 8 mg/dL
  K: 4.1 meq/L
  LDH: 206.6 IU/L
  Na: 140.8 meq/L
  PL: 145.2 mg/dL
  RALB: 3.3 g/dL
  TBIL: 0.1 mg/dL
  TC: 71.6 mg/dL
  TG: 84.6 mg/dL
  TP: 5.4 g/dL
  gamma-GTP: 0.8 IU/L
[2]
  TERMINAL_BW: 256.3 g
  APTT: 19.2 s
  Bas: 0%
  Eos: 1%
  Fbg: 210.8 mg/dL
  Ht: 40.7%
  Lym: 83.8%
  MCH: 21.2 pg
  MCHC: 34.3%
  MCV: 61.9 fL
  Mono: 2.6%
  Neu: 12.4%
  Plat: 132.8 x10_4/uL
  RBC: 658.4 x10_4/ul
  Ret: 5.8%
  WBC: 96.1 x10_2/uL
  ALP: 909.6 IU/L
  ALT: 33.6 IU/L
  AST: 66 IU/L
  BUN: 17.2 mg/dL
  CRE: 0.4 mg/dL
  DBIL: 0.08 mg/dL
  GLC: 223.2 mg/dL
  IP: 8 mg/dL
  K: 3.8 meq/L
  LDH: 199.6 IU/L
  Na: 141 meq/L
  PL: 146.2 mg/dL
  RALB: 3.4 g/dL
  TBIL: 0.1 mg/dL
  TC: 68.8 mg/dL
  TG: 106.4 mg/dL
  TP: 5.5 g/dL
  gamma-GTP: 1.2 IU/L
[3]
  TERMINAL_BW: 316.1 g
  APTT: 18.3 s
  Bas: 0%
  Eos: 1%
  Fbg: 228.2 mg/dL
  Ht: 40.9%
  Lym: 78.6%
  MCH: 20.7 pg
  MCHC: 35.2%
  MCV: 58.9 fL
  Mono: 2.4%
  Neu: 17.6%
  Plat: 140.4 x10_4/uL
  RBC: 695 x10_4/ul
  Ret: 4.7%
  WBC: 114.6 x10_2/uL
  ALP: 946.4 IU/L
  ALT: 34.8 IU/L
  AST: 64.4 IU/L
  BUN: 19 mg/dL
  CRE: 0.4 mg/dL
  DBIL: 0.098 mg/dL
  GLC: 231.4 mg/dL
  IP: 7.1 mg/dL
  K: 3.6 meq/L
  LDH: 198.8 IU/L
  Na: 140.6 meq/L
  PL: 166 mg/dL
  RALB: 3.5 g/dL
  TBIL: 0.1 mg/dL
  TC: 77 mg/dL
  TG: 137.2 mg/dL
  TP: 5.9 g/dL
  gamma-GTP: 1.2 IU/L
[4]
  TERMINAL_BW: 396.1 g
  APTT: 19.4 s
  Bas: 0%
  Eos: 1%
  Fbg: 227.8 mg/dL
  Ht: 42.7%
  Lym: 83%
  MCH: 19.2 pg
  MCHC: 34.9%
  MCV: 55.1 fL
  Mono: 2.2%
  Neu: 12.8%
  Plat: 108.4 x10_4/uL
  RBC: 775.4 x10_4/ul
  Ret: 2.6%
  WBC: 129.7 x10_2/uL
  ALP: 657.8 IU/L
  ALT: 34.8 IU/L
  AST: 64.4 IU/L
  BUN: 17.6 mg/dL
  CRE: 0.5 mg/dL
  DBIL: 0.088 mg/dL
  GLC: 208.8 mg/dL
  IP: 6.9 mg/dL
  K: 3.9 meq/L
  LDH: 175.2 IU/L
  Na: 140.2 meq/L
  PL: 150.6 mg/dL
  RALB: 3.5 g/dL
  TBIL: 0.1 mg/dL
  TC: 66.4 mg/dL
  TG: 155 mg/dL
  TP: 6.1 g/dL
  gamma-GTP: 1 IU/L
[5]
  TERMINAL_BW: 226.4 g
  APTT: 18.3 s
  Bas: 0%
  Eos: 1%
  Fbg: 221.6 mg/dL
  Ht: 38.6%
  Lym: 78%
  MCH: 21.7 pg
  MCHC: 34.2%
  MCV: 63.3 fL
  Mono: 3.4%
  Neu: 17%
  Plat: 137.5 x10_4/uL
  RBC: 609.4 x10_4/ul
  Ret: 7.3%
  WBC: 105.8 x10_2/uL
  ALP: 892.6 IU/L
  ALT: 36 IU/L
  AST: 69 IU/L
  BUN: 15.4 mg/dL
  CRE: 0.4 mg/dL
  DBIL: 0.076 mg/dL
  GLC: 210.4 mg/dL
  IP: 8.7 mg/dL
  K: 4 meq/L
  LDH: 217.4 IU/L
  Na: 140.8 meq/L
  PL: 160.4 mg/dL
  RALB: 3.4 g/dL
  TBIL: 0.1 mg/dL
  TC: 78.4 mg/dL
  TG: 84.2 mg/dL
  TP: 5.5 g/dL
  gamma-GTP: 1.4 IU/L
[6]
  TERMINAL_BW: 255.3 g
  APTT: 19 s
  Bas: 0%
  Eos: 1%
  Fbg: 211.6 mg/dL
  Ht: 40.1%
  Lym: 82.6%
  MCH: 21.3 pg
  MCHC: 34.4%
  MCV: 62 fL
  Mono: 3%
  Neu: 12.8%
  Plat: 133.3 x10_4/uL
  RBC: 647.4 x10_4/ul
  Ret: 5.7%
  WBC: 143.8 x10_2/uL
  ALP: 833.2 IU/L
  ALT: 35.2 IU/L
  AST: 65.6 IU/L
  BUN: 16.2 mg/dL
  CRE: 0.4 mg/dL
  DBIL: 0.084 mg/dL
  GLC: 219.6 mg/dL
  IP: 8.2 mg/dL
  K: 3.7 meq/L
  LDH: 193.8 IU/L
  Na: 140.2 meq/L
  PL: 143.4 mg/dL
  RALB: 3.4 g/dL
  TBIL: 0.1 mg/dL
  TC: 73.2 mg/dL
  TG: 86.4 mg/dL
  TP: 5.6 g/dL
  gamma-GTP: 1.6 IU/L
[7]
  TERMINAL_BW: 314.8 g
  APTT: 18.3 s
  Bas: 0%
  Eos: 1%
  Fbg: 229.2 mg/dL
  Ht: 41.1%
  Lym: 83.8%
  MCH: 20.7 pg
  MCHC: 35%
  MCV: 59.1 fL
  Mono: 2.6%
  Neu: 12.2%
  Plat: 130 x10_4/uL
  RBC: 695.4 x10_4/ul
  Ret: 4.7%
  WBC: 113.4 x10_2/uL
  ALP: 914.4 IU/L
  ALT: 34.8 IU/L
  AST: 65.8 IU/L
  BUN: 17.2 mg/dL
  CRE: 0.4 mg/dL
  DBIL: 0.086 mg/dL
  GLC: 234 mg/dL
  IP: 7.5 mg/dL
  K: 4 meq/L
  LDH: 192 IU/L
  Na: 141.2 meq/L
  PL: 151.2 mg/dL
  RALB: 3.3 g/dL
  TBIL: 0.1 mg/dL
  TC: 74.4 mg/dL
  TG: 106 mg/dL
  TP: 5.8 g/dL
  gamma-GTP: 0.8 IU/L
[8]
  TERMINAL_BW: 407 g
  APTT: 19.9 s
  Bas: 0%
  Eos: 1.4%
  Fbg: 214.2 mg/dL
  Ht: 42.1%
  Lym: 82.8%
  MCH: 19.6 pg
  MCHC: 35.1%
  MCV: 55.8 fL
  Mono: 2%
  Neu: 13.2%
  Plat: 112.1 x10_4/uL
  RBC: 755.6 x10_4/ul
  Ret: 2.7%
  WBC: 101.3 x10_2/uL
  ALP: 660.2 IU/L
  ALT: 37.4 IU/L
  AST: 65 IU/L
  BUN: 19 mg/dL
  CRE: 0.4 mg/dL
  DBIL: 0.1 mg/dL
  GLC: 200 mg/dL
  IP: 6.8 mg/dL
  K: 3.8 meq/L
  LDH: 168.2 IU/L
  Na: 141.4 meq/L
  PL: 147.2 mg/dL
  RALB: 3.4 g/dL
  TBIL: 0.2 mg/dL
  TC: 63.8 mg/dL
  TG: 158.4 mg/dL
